Measured values reported in patent publication US4578489A (priority 1982, dated 1986).
Read-outs that look alike come from different tables or passages of the source.

Legend:
[1] = test system: Chlorella vulgaris; test: Action against algae: Chlorella vulgaris; format: cell-based; parameters: key: --: no growth on the agar, 3 ppm have destroyed the algae in 6 hours; conditions: 3 mg/liter
Summary of the method: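 14-day cultures diluted 1/200 in nutrient medium received compound at 3 mg/liter final. After 6 h, samples were spotted on algae/agar for algicidal action; growth inhibition in medium and killing on agar assessed visually after 14 days under 14 h light/10 h dark.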

[2] = test system: Penicillium funiculosum; test: Minimum inhibitory concentration against fungi, agar incorporation test, strain M; format: cell-based; conditions: malt extract/agar
Summary of the method: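 Compounds incorporated into malt extract agar at final 2, 5, 10, 50 and 100 mg/liter, then inoculated dropwise with fungus. Value is the concentration (mg/liter) inhibiting growth.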

[3] = test system: Endomyces geotrichum; test: Minimum inhibitory concentration against fungi, agar incorporation test, strain Q; format: cell-based; conditions: malt extract/agar
Summary of the method: (§1)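 Malt extract agar with test compound at final 2, 5, 10, 50, 100 mg/liter; fungi spotted dropwise; MIC = lowest mg/liter preventing growth.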

[4] = test system: Alcaligenes denitrificans; test: Minimum inhibitory concentration against bacteria, strain E; format: cell-based; conditions: 24 hours at 30° C.; tested at 100 and 300 mg/liter
Summary of the method: (§2)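 Overnight culture → 1/1000 in saline → 1/1000 in Caso peptone broth; cpd 100 and 300 mg/liter; 24 h, 30° C., shaking; turbidity scored.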

[5] = test system: Aspergillus phoenicis; test: Minimum inhibitory concentration against fungi, agar incorporation test, strain L; format: cell-based; conditions: malt extract/agar
Summary of the method: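 Agar incorporation test in malt extract agar with compound at final 2, 5, 10, 50 and 100 mg/liter, inoculated dropwise with fungus; value is concentration (mg/liter) inhibiting growth.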

[6] = test system: Pseudomonas aeruginosa; test: Minimum inhibitory concentration against bacteria, strain B; format: cell-based; conditions: 24 hours at 30° C.; tested at 100 and 300 mg/liter
Summary of the method: as §2

[7] = test system: Bacillus subtilis; test: Minimum inhibitory concentration against bacteria, strain F; format: cell-based; conditions: 24 hours at 30° C.; tested at 100 and 300 mg/liter
Summary of the method: as §2

[8] = test system: Enteromorpha intestinalis; test: Action against Enteromorpha intestinalis: inhibitory concentration (MIC); format: in vivo; conditions: seawater containing biocide for entire test; concentration tested 0.5 mg/liter
Protocol: (§3) The action against the green alga Enteromorpha, which is the most important in seawter fouling, is investigated in sterile-filtered seawater containing an Erd-Schreiber solution. This solution is composed of a nutrient extract, phosphate and nitrate. The incubation of Enteromorpha intestinalis is carried out in a light thermostat at 18° C. under an alternation of 14 hours of light and 10 hours of darkness.
For determining the inhibitory concentration (MIC), the algae are kept in seawater containing biocide for the entire duration of the test (concentration tested: 0.5 mg/liter).

[9] = test system: Serratia marcencens; test: Minimum inhibitory concentration against bacteria, strain D; format: cell-based; conditions: 24 hours at 30° C.; tested at 100 and 300 mg/liter
Summary of the method: as §2

[10] = test system: Cladosporium cladosporioides; test: Minimum inhibitory concentration against fungi, agar incorporation test, strain O; format: cell-based; conditions: malt extract/agar
Summary of the method: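 Compounds incorporated into malt extract agar at final concentrations of 2, 5, 10, 50 and 100 mg/liter, with fungal traces added dropwise. Value is the concentration (mg/liter) required to inhibit fungal growth.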

[11] = test system: Aureobasidium pullulans; test: Minimum inhibitory concentration against fungi, agar incorporation test, strain R; format: cell-based; conditions: malt extract/agar
Summary of the method: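 Compounds incorporated in malt extract agar at final 2, 5, 10, 50 and 100 mg/liter. Agar inoculated dropwise with traces of fungus. Value is the concentration (mg/liter) needed to inhibit growth.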

[12] = test system: Aureobasidium pullulans; test: Growth on wood; parameters: key: 1: growth on the wood; 2: slight growth on the wood; 3: no growth on the wood; 4: no growth on the wood and an inhibitory zone; conditions: 28°, 4 weeks
Protocol: Small blocks of spruce wood, 7×10×10 mm in size, are dried in vacuo. The small blocks are then vacuum-impregnated by keeping them, in vacuo, in 100 ml of distilled water+biocide for 30 minutes and then subjecting them to a pressure treatment (2 atmospheres gauge by means of compressed air) for 18 hours in the water. The pieces of wood treated in this way are first subjected to leaching in running water and are then dried.
The dried pieces of wood are placed on potato/glucose agar and the wood, as well as the surrounding agar, is inoculated with 0.1 ml of a spore suspension of Aureobasidium pullulans. After incubation at 28° for 4 weeks, the growth is evaluated in accordance with the following rating: […]

[13] = test system: Aspergillus niger; test: Minimum inhibitory concentration against fungi, agar incorporation test, strain K; format: cell-based; conditions: malt extract/agar
Summary of the method: as §1

[14] = test system: mixed culture of bacteria; format: cell-based; parameters: key: +: growth, no destruction; (+): growth less than that of control (>10 colonies), slight destruction; (-): slight growth (1-10 colonies); -: no growth, destruction
[15] = test system: Candida albicans; test: Minimum inhibitory concentration against fungi, agar incorporation test, strain P; format: cell-based; conditions: malt extract/agar
Summary of the method: as §1

[16] = test system: Chaetomium globosum; test: Minimum inhibitory concentration against fungi, agar incorporation test, strain S; format: cell-based; conditions: malt extract/agar
Summary of the method: as §1

[17] = test system: Artemia salina; test: Action against Artemia salina nauplii; format: in vivo; parameters: key: 0: no change; 1: slight change; 1-2: animals are attacked; 2: animals are strongly attacked; 2-3: animals are nearly all dead; 3: animals are all dead
Protocol: The eggs, which are available commercially, are caused to hatch by vigorous aeration. When 2-3 days old, the nauplii are exposed to the products at various concentrations (concentrations tested: 2.5; 1; 0.5 and 0.25 mg/liter) in synthetic seawater, and are observed over a prolonged period of time.

[18] = test system: Enterobacter aerogenes; test: Minimum inhibitory concentration against bacteria, strain C; format: cell-based; conditions: 24 hours at 30° C.; tested at 100 and 300 mg/liter
Summary of the method: as §2

[19] = test system: Proteus vulgaris; test: Minimum inhibitory concentration against bacteria, strain A; format: cell-based; conditions: 24 hours at 30° C.; tested at 100 and 300 mg/liter
Summary of the method: as §2

[20] = test system: Alternaria alternata; test: Minimum inhibitory concentration against fungi, agar incorporation test, strain N; format: cell-based; conditions: malt extract/agar
Summary of the method: as §1

[21] = test system: Enteromorpha intestinalis; test: Action against Enteromorpha intestinalis: destruction (minimum killing concentration); format: in vivo; conditions: 4 hours in seawater, then 6-8 weeks in fresh seawater
Protocol: as §3
The algae which have been cultured in this way are exposed to the products under investigation for a short time (4 hours) in seawater. The minimum killing concentration (MKC) is determined by taking the algae out of the seawater containing a specific quantity of algicide, after the treatment time in the latter, washing the algae and investigating growth or mortality after incubation in fresh seawater for a further period of 6-8 weeks.
The minimum killing concentration (MKC) indicates the amount of substance required to cause such damage to the algae within a specific time that they can no longer recover in fresh seawater and die out.

CCCCCCCCCCCC[n+]1ccccc1.CCC[CH2][Sn-]([Cl])([Cl])([CH2]CCC)[CH2]CCC [Example 6, Pyridine-Nlauryl / Tributyldichloro]
Growth on the agar (algae-destroying action) ([1]; 6 hours exposure, 14 days incubation): --
Growth in the medium (growth inhibition) ([1]; 14 days): --
MIC against fungi, strain M [2]: 5 µg/mL
MIC against fungi, strain Q [3]: 5 µg/mL
MIC against bacteria, strain E [4]: 100 µg/mL
MIC against fungi, strain L [5]: 2 µg/mL
MIC against bacteria, strain B [6]: 100 µg/mL
MIC against bacteria, strain F [7]: 100 µg/mL
MIC [8]: 0.5 µg/mL
MIC against bacteria, strain D [9]: 100 µg/mL
MIC against fungi, strain O [10]: 2 µg/mL
MIC against fungi, strain R [11]: 2 µg/mL
growth on wood, leached for 5 days ([12]; 0.01 % in H2 O): 4
growth on wood, not leached ([12]; 0.01 % in H2 O): 4
growth on wood, leached for 5 days ([12]; 0.05 % in H2 O): 4
growth on wood, not leached ([12]; 0.05 % in H2 O): 4
MIC against fungi, strain K [13]: 2 µg/mL
Growth (destruction of a mixed culture of bacteria) ([14]; 5 mg/l, culture diluted 1/1000 in Tyrode): +
Growth (destruction of a mixed culture of bacteria) ([14]; 5 mg/l, culture diluted 1/10000 in Tyrode): +
Growth (destruction of a mixed culture of bacteria) ([14]; 10 mg/l, culture diluted 1/1000 in Tyrode): +
Growth (destruction of a mixed culture of bacteria) ([14]; 10 mg/l, culture diluted 1/10000 in Tyrode): +
Growth (destruction of a mixed culture of bacteria) ([14]; 30 mg/l, culture diluted 1/1000 in Tyrode): +
Growth (destruction of a mixed culture of bacteria) ([14]; 30 mg/l, culture diluted 1/10000 in Tyrode): +
Growth (destruction of a mixed culture of bacteria) ([14]; 60 mg/l, culture diluted 1/1000 in Tyrode): +
Growth (destruction of a mixed culture of bacteria) ([14]; 60 mg/l, culture diluted 1/10000 in Tyrode): +
Growth (destruction of a mixed culture of bacteria) ([14]; 100 mg/l, culture diluted 1/1000 in Tyrode): +
Growth (destruction of a mixed culture of bacteria) ([14]; 100 mg/l, culture diluted 1/10000 in Tyrode): +
MIC against fungi, strain P [15]: 5 µg/mL
MIC against fungi, strain S [16]: 2 µg/mL
Action against Artemia salina ([17]; 0,5 mg/l, 6 hours): 1-2
Action against Artemia salina ([17]; 0,5 mg/l, 24 hours): 2-3
Action against Artemia salina ([17]; 0,5 mg/l, 48 hours): 3
Action against Artemia salina ([17]; 0,25 mg/l, 6 hours): 1
Action against Artemia salina ([17]; 0,25 mg/l, 24 hours): 2
Action against Artemia salina ([17]; 0,25 mg/l, 48 hours): 2-3
Action against Artemia salina ([17]; 1 mg/l, 6 hours): 2
Action against Artemia salina ([17]; 1 mg/l, 24 hours): 3
Action against Artemia salina ([17]; 1 mg/l, 48 hours): 3
Action against Artemia salina ([17]; 2,5 mg/l, 6 hours): 2-3
Action against Artemia salina ([17]; 2,5 mg/l, 24 hours): 3
Action against Artemia salina ([17]; 2,5 mg/l, 48 hours): 3
MIC against bacteria, strain C [18]: 100 µg/mL
MIC against bacteria, strain A [19]: 100 µg/mL
MIC against fungi, strain N [20]: 2 µg/mL
Destruction, 5 mg/liter [21]: yes
